The subject of this data set is CCRIS mutagenicity, Ames/micronucleus/aberration tests. Kind of data set: CCRIS mutagenicity studies.
Setting [1] is: Test System: AMES SALMONELLA TYPHIMURIUM, Strain/Indicator: TA98, Metabolic Activation: NONE, Method: PREINCUBATION
Where [2] appears, read: Test System: AMES SALMONELLA TYPHIMURIUM, Strain/Indicator: TA100, Metabolic Activation: NONE, Method: PREINCUBATION
[3] abbreviates: Test System: AMES SALMONELLA TYPHIMURIUM, Strain/Indicator: TA1535, Metabolic Activation: NONE, Method: PREINCUBATION
The mark [4] stands for this setting: Test System: AMES SALMONELLA TYPHIMURIUM, Strain/Indicator: TA1537, Metabolic Activation: NONE, Method: PREINCUBATION
Setting [5] is: Test System: AMES SALMONELLA TYPHIMURIUM, Strain/Indicator: TA98, Metabolic Activation: NONE, Method: STANDARD PLATE.
Setting [6] is: Test System: AMES SALMONELLA TYPHIMURIUM, Strain/Indicator: TA100, Metabolic Activation: NONE, Method: STANDARD PLATE.
[7] abbreviates: Test System: AMES SALMONELLA TYPHIMURIUM, Strain/Indicator: TA1537, Metabolic Activation: NONE, Method: STANDARD PLATE.

Calls of active or inactive are those of the source. The rule behind the calls is not given here.

For the compound `CC(O)COC(C)(C)C` (stereo not drawn), the mutagenic call was “inactive; negative” (End Point: IN VITRO CHROMOSOMAL ABERRATIONS, Test System: CHO, Metabolic Activation: NONE); “inactive; negative” (End Point: IN VITRO CHROMOSOMAL ABERRATIONS, Test System: CHO, Metabolic Activation: S-9); “active; positive (weak)” (End Point: IN VIVO MICRONUCLEUS, Test System: PERIPHERAL BLOOD ERYTHROCYTES, Species: MOUSE, Strain/Sex: B6C3F1/FEMALE, Route: INHALATION); “inactive; negative” (End Point: IN VIVO MICRONUCLEUS, Test System: PERIPHERAL BLOOD ERYTHROCYTES, Species: MOUSE, Strain/Sex: B6C3F1/MALE, Route: INHALATION); “inactive; negative” (Test System: AMES SALMONELLA TYPHIMURIUM, Strain/Indicator: TA97, Metabolic Activation: HAMSTER, LIVER, S-9 (30%), AROCLOR 1254, Method: PREINCUBATION); “active; positive” (Test System: AMES SALMONELLA TYPHIMURIUM, Strain/Indicator: TA97, Metabolic Activation: NONE, Method: PREINCUBATION). Also, the mutagenic call (Test System: AMES SALMONELLA TYPHIMURIUM, Strain/Indicator: TA97, Metabolic Activation: RAT, LIVER, S-9 (30%), AROCLOR 1254, Method: PREINCUBATION) was “inactive; negative”; the mutagenic call (Test System: AMES SALMONELLA TYPHIMURIUM, Strain/Indicator: TA98, Metabolic Activation: HAMSTER, LIVER, S-9 (30%), AROCLOR 1254, Method: PREINCUBATION) is “inactive; negative”; the mutagenic call under setting [1] was “inactive; negative”; the mutagenic call (Test System: AMES SALMONELLA TYPHIMURIUM, Strain/Indicator: TA98, Metabolic Activation: RAT, LIVER, S-9 (30%), AROCLOR 1254, Method: PREINCUBATION) is “inactive; negative”; the mutagenic call (Test System: AMES SALMONELLA TYPHIMURIUM, Strain/Indicator: TA100, Metabolic Activation: HAMSTER, LIVER, S-9 (30%), AROCLOR 1254, Method: PREINCUBATION) was “inactive; negative”; the mutagenic call under setting [2] is “inactive; negative”. Further, the mutagenic call (Test System: AMES SALMONELLA TYPHIMURIUM, Strain/Indicator: TA100, Metabolic Activation: RAT, LIVER, S-9 (30%), AROCLOR 1254, Method: PREINCUBATION) was “inactive; negative”; the mutagenic call (Test System: AMES SALMONELLA TYPHIMURIUM, Strain/Indicator: TA1535, Metabolic Activation: HAMSTER, LIVER, S-9 (30%), AROCLOR 1254, Method: PREINCUBATION) is “inactive; negative”; the mutagenic call under setting [3] was “inactive; negative”; the mutagenic call (Test System: AMES SALMONELLA TYPHIMURIUM, Strain/Indicator: TA1535, Metabolic Activation: RAT, LIVER, S-9 (30%), AROCLOR 1254, Method: PREINCUBATION) is “inactive; negative”; the mutagenic call under setting [4] was “inactive; negative”.
As to `CC(C)=CCC/C(C)=C/CC/C(C)=C/C(=O)OCC(=O)[C@@]1(O)CC[C@H]2[C@@H]3CCC4=CC(=O)C=C[C@]4(C)[C@H]3[C@@H](O)C[C@@]21C`, the mutagenic call reads like this: under setting [5], “inactive; negative”; (Test System: AMES SALMONELLA TYPHIMURIUM, Strain/Indicator: TA98, Metabolic Activation: RAT, LIVER, S-9, PHENOBARBITAL AND 5,6-BENZOFLAVONE, Method: STANDARD PLATE) “inactive; negative”; under setting [6], “inactive; negative”; (Test System: AMES SALMONELLA TYPHIMURIUM, Strain/Indicator: TA100, Metabolic Activation: RAT, LIVER, S-9, PHENOBARBITAL AND 5,6-BENZOFLAVONE, Method: STANDARD PLATE) “inactive; negative”; (Test System: AMES SALMONELLA TYPHIMURIUM, Strain/Indicator: TA1535, Metabolic Activation: NONE, Method: STANDARD PLATE) “inactive; negative”; (Test System: AMES SALMONELLA TYPHIMURIUM, Strain/Indicator: TA1535, Metabolic Activation: RAT, LIVER, S-9, PHENOBARBITAL AND 5,6-BENZOFLAVONE, Method: STANDARD PLATE) “inactive; negative”. For the same compound, the mutagenic call was “inactive; negative” under setting [7]; “inactive; negative” (Test System: AMES SALMONELLA TYPHIMURIUM, Strain/Indicator: TA1537, Metabolic Activation: RAT, LIVER, S-9, PHENOBARBITAL AND 5,6-BENZOFLAVONE, Method: STANDARD PLATE); “inactive; negative” (Test System: E. COLI, Strain/Indicator: WP2 UVRA, Metabolic Activation: NONE, Method: STANDARD PLATE); “inactive; negative” (Test System: E. COLI, Strain/Indicator: WP2 UVRA, Metabolic Activation: RAT, LIVER, S-9, PHENOBARBITAL AND 5,6-BENZOFLAVONE, Method: STANDARD PLATE).
As for `O=CCO`, under setting [2], the mutagenic call is “inactive; negative”.
Turning to `O=C1c2c(ccc3ccccc23)-c2cccc3cccc1c23`, the mutagenic call runs as follows: under setting [5], “inactive; negative”; under setting [6], “inactive; negative”.
`COC(=O)c1cc2ccc3ccc[n+](C)c3c2[nH]1`: the mutagenic call was “inactive; negative” under setting [5] and “inactive; negative” (Test System: E. COLI, Strain/Indicator: WP2 TM9, Metabolic Activation: NONE, Method: STANDARD PLATE).
On to `CCCCOC(=O)c1ccccc1N`, for which the mutagenic call by setting is: (Test System: AMES SALMONELLA TYPHIMURIUM, Strain/Indicator: TA98, Metabolic Activation: HAMSTER, LIVER, S-9, AROCLOR 1254 (10%), Method: PREINCUBATION) “inactive; negative”; under setting [1], “inactive; negative”; (Test System: AMES SALMONELLA TYPHIMURIUM, Strain/Indicator: TA98, Metabolic Activation: RAT, LIVER, S-9, AROCLOR 1254 (10%), Method: PREINCUBATION) “inactive; negative”; (Test System: AMES SALMONELLA TYPHIMURIUM, Strain/Indicator: TA100, Metabolic Activation: HAMSTER, LIVER, S-9, AROCLOR 1254 (10%), Method: PREINCUBATION) “inactive; negative”; under setting [2], “inactive; negative”; (Test System: AMES SALMONELLA TYPHIMURIUM, Strain/Indicator: TA100, Metabolic Activation: RAT, LIVER, S-9, AROCLOR 1254 (10%), Method: PREINCUBATION) “inactive; negative”. Besides, the mutagenic call is, setting by setting: (Test System: AMES SALMONELLA TYPHIMURIUM, Strain/Indicator: TA1535, Metabolic Activation: HAMSTER, LIVER, S-9, AROCLOR 1254 (10%), Method: PREINCUBATION) “inactive; negative”; under setting [3], “inactive; negative”; (Test System: AMES SALMONELLA TYPHIMURIUM, Strain/Indicator: TA1535, Metabolic Activation: RAT, LIVER, S-9, AROCLOR 1254 (10%), Method: PREINCUBATION) “inactive; negative”; (Test System: AMES SALMONELLA TYPHIMURIUM, Strain/Indicator: TA1537, Metabolic Activation: HAMSTER, LIVER, S-9, AROCLOR 1254 (10%), Method: PREINCUBATION) “inactive; negative”; under setting [4], “inactive; negative”; (Test System: AMES SALMONELLA TYPHIMURIUM, Strain/Indicator: TA1537, Metabolic Activation: RAT, LIVER, S-9, AROCLOR 1254 (10%), Method: PREINCUBATION) “inactive; negative”.
On to `CCC[CH2][Sn]([CH2]CCC)([CH2]CCC)[CH2]CCC`, for which the mutagenic call is “inactive; negative” (Test System: AMES SALMONELLA TYPHIMURIUM, Strain/Indicator: TA98, Metabolic Activation: NONE, Method: SUSPENSION/PLATE) and “inactive; negative” (Test System: AMES SALMONELLA TYPHIMURIUM, Strain/Indicator: TA100, Metabolic Activation: NONE, Method: SUSPENSION/PLATE).
On to `COc1cccc(NC(=O)c2csc([N+](=O)[O-])c2)c1`, for which the mutagenic call runs as follows: under setting [5], “active; positive”; under setting [6], “active; positive”.
Take `CCOc1ccc2c(c1)C(C)=CC(C)(C)N2`: the mutagenic call under setting [5] was “inactive; negative”; the mutagenic call (Test System: AMES SALMONELLA TYPHIMURIUM, Strain/Indicator: TA98, Metabolic Activation: S-9, Method: STANDARD PLATE) was “inactive; negative”; the mutagenic call under setting [6] was “inactive; negative”; the mutagenic call (Test System: AMES SALMONELLA TYPHIMURIUM, Strain/Indicator: TA100, Metabolic Activation: S-9, Method: STANDARD PLATE) is “inactive; negative”.
With `COc1cc(NS(C)(=O)=O)ccc1Nc1c2ccc(N=[N+]=[N-])cc2nc2c(C)cccc12`, the mutagenic call under setting [7] is “active; positive”.

Source of the values: PubChem BioAssay AID1259407 (Chemical Carcinogenesis Research Information System (CCRIS), 2018).
